From the supplement of paper PMC12494721
Structures can show the parent of a compound that is named as a salt.

How the values were obtained:
Conditions in all cases: incubation time: 27 h, anaerobic, 37 °C
[1] = test system: Klebsiella aerogenes DSM 30053; assay: fold change of Cadaverine concentration vs plate DMSO controls (fold change (ratio)); higher = more amine produced
[2] = test system: Ruminococcus gnavus DSM 108212; assay: fold change of Tryptamine concentration vs plate DMSO controls (fold change (ratio)); higher = more amine produced
[3] = test system: Klebsiella aerogenes DSM 30053; assay: growth (OD595) fold change vs plate DMSO controls (fold change (ratio)); higher = more growth
[4] = test system: Ruminococcus gnavus DSM 108212; assay: as above
[5] = test system: Ruminococcus gnavus DSM 108212; assay: fold change of 2-Phenylethylamine concentration vs plate DMSO controls (fold change (ratio)); higher = more amine produced
[6] = test system: Klebsiella aerogenes DSM 30053; assay: fold change of Histamine concentration vs plate DMSO controls (fold change (ratio)); higher = more amine produced
Procedure: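 Dose-response follow-up: bacteria (E. coli IAI1, K. aerogenes DSM 30053, C. sporogenes DSM 1664, R. gnavus DSM 108212) were grown anaerobically in mGAM at 37 °C for 27 h with compound at 0.6125-20 µM. Amines were measured in the whole culture by targeted LC-MS/MS. Metabolite fold change and OD595 fold change are relative to plate DMSO controls; n=2 biological replicates. OD fold changes are not clipped, so slightly negative values mean no growth.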

[7] = test system: Klebsiella aerogenes DSM 30053; assay: fold change of Putrescine concentration vs plate DMSO controls (fold change (ratio)); higher = more amine produced
[8] = test system: Clostridium sporogenes DSM 1664; assay: fold change of Tryptamine concentration vs plate DMSO controls (fold change (ratio)); higher = more amine produced
[9] = test system: Clostridium sporogenes DSM 1664; assay: growth (OD595) fold change vs plate DMSO controls (fold change (ratio)); higher = more growth
[10] = test system: Escherichia coli IAI1; assay: fold change of Cadaverine concentration vs plate DMSO controls (fold change (ratio)); higher = more amine produced
[11] = test system: Escherichia coli IAI1; assay: growth (OD595) fold change vs plate DMSO controls (fold change (ratio)); higher = more growth
[12] = test system: Escherichia coli IAI1; assay: fold change of Putrescine concentration vs plate DMSO controls (fold change (ratio)); higher = more amine produced

COc1c(N2CCNC(C)C2)c(F)cc2c(=O)c(C(=O)O)cn(C3CC3)c12 (stereo not given) [Gatifloxacin]
Conditions | fold change of 2-Phenylethylamine concentration, [5] | fold change of Cadaverine concentration, [1] | fold change of Histamine concentration, [6] | fold change of Putrescine concentration, [7] | fold change of Tryptamine concentration, [2] | growth, [3] | growth, [4]
0.6125 µM | 1.35 | 0.983 | 1.35 | 1.03 | 1.31 | 0.993 | 0.932
1.25 µM | 1.33 | 1.03 | 0.852 | 1.2 | 1.5 | 0.605 | 0.65
2.5 µM | 1.67 | 1.02 | 0.158 | 1.26 | 2.2 | 0.302 | 0.553
5 µM | 2.18 | 0.999 | 0.193 | 1.35 | 2.87 | 0.348 | 0.484
10 µM | 1.22 | 1 | 0.284 | 1.4 | 1.85 | 0.373 | 0.3
20 µM | 0.23 | 0.997 | 0.4 | 1.24 | 0.434 | 0.242 | 0.107

CC(=O)NC[C@H]1CN(c2ccc(N3CCOCC3)c(F)c2)C(=O)O1 [Linezolid]
Conditions | fold change of Tryptamine concentration, [8] | growth, [9]
0.6125 µM | 0.966 | 1.14
1.25 µM | 0.923 | 1.05
2.5 µM | 0.894 | 1.06
5 µM | 0.77 | 0.814
10 µM | 0.51 | 0.563
20 µM | 0.0345 | -0.0339

COc1cccc(OC)c1C(=O)N[C@@H]1C(=O)N2[C@@H]1SC(C)(C)[C@@H]2C(=O)O [Methicillin sodium]
Conditions | fold change of Tryptamine concentration, [8] | growth, [9]
0.6125 µM | 1.02 | 0.843
1.25 µM | 1 | 0.888
2.5 µM | 1.01 | 0.839
5 µM | 0.915 | 0.95
10 µM | 0.779 | 0.469
20 µM | 0.417 | 0.469

Cc1ncc([N+](=O)[O-])n1CCO [Metronidazole]
Conditions | fold change of Tryptamine concentration, [8] | growth, [9]
0.6125 µM | 0.744 | 1.05
1.25 µM | 0.758 | 1.12
2.5 µM | 0.55 | 1.08
5 µM | 0.0225 | -0.0178
10 µM | 0.0206 | -0.0224
20 µM | 0.0183 | -0.023

CO[C@@]12[C@H](COC(N)=O)C3=C(C(=O)C(C)=C(N)C3=O)N1C[C@@H]1N[C@@H]12 [Mitomycin C]
Conditions | fold change of Cadaverine concentration, [10] | fold change of Putrescine concentration, [12] | growth, [11]
0.6125 µM | 1.42 | 0.929 | 0.872
1.25 µM | 1.59 | 1.35 | 0.904
2.5 µM | 1.98 | 1.27 | 0.925
5 µM | 1.94 | 1.13 | 1.05
10 µM | 1.25 | 0.82 | 0.764
20 µM | 0.41 | 0.673 | -0.0235

CC[C@@]1([C@@H]2O[C@@H]([C@H]3O[C@@](O)(CO)[C@H](C)C[C@@H]3C)C[C@@H]2C)CC[C@H]([C@]2(C)CC[C@]3(C[C@H](O)[C@@H](C)[C@@H]([C@@H](C)[C@@H](OC)[C@H](C)C(=O)O)O3)O2)O1 [Monensin sodium salt]
Conditions | fold change of Tryptamine concentration, [8] | growth, [9]
0.6125 µM | 0.986 | 0.907
1.25 µM | 0.919 | 0.829
2.5 µM | 0.785 | 0.712
5 µM | 0.555 | 0.829
10 µM | 0.39 | 0.664
20 µM | 0.267 | 0.516

CCn1cc(C(=O)O)c(=O)c2cc3c(cc21)OCO3 [Oxolinic acid]
Conditions | fold change of Tryptamine concentration, [8] | growth, [9]
0.6125 µM | 0.975 | 1.04
1.25 µM | 1.03 | 0.931
2.5 µM | 1.13 | 1.05
5 µM | 0.788 | 0.775
10 µM | 0.446 | 0.806
20 µM | 0.0475 | -0.028

CN(C)[C@@H]1C(=O)C(C(N)=O)=C(O)[C@@]2(O)C(=O)C3=C(O)c4c(O)cccc4[C@@](C)(O)[C@H]3[C@H](O)[C@@H]12 [Oxytetracycline dihydrate]
Conditions | fold change of 2-Phenylethylamine concentration, [5] | fold change of Tryptamine concentration, [2] | growth, [4]
0.6125 µM | 0.956 | 1.13 | 0.833
1.25 µM | 1.13 | 1.31 | 0.83
2.5 µM | 1.34 | 1.69 | 0.68
5 µM | 2.06 | 2.71 | 0.594
10 µM | 2.02 | 2.8 | 0.414
20 µM | 2.08 | 2.82 | 0.356

CC(C)(c1cc(Br)c(O)c(Br)c1)c1cc(Br)c(O)c(Br)c1 [TBBPA]
Conditions | fold change of Tryptamine concentration, [8] | growth, [9]
0.6125 µM | 1.18 | 1.09
1.25 µM | 1.18 | 1.16
2.5 µM | 1.18 | 1.25
5 µM | 1.27 | 1.25
10 µM | 0.379 | 0.452
20 µM | 0.0168 | -0.0298

CS(=O)(=O)c1ccc([C@@H](O)[C@@H](CO)NC(=O)C(Cl)Cl)cc1 [Thiamphenicol]
Conditions | fold change of 2-Phenylethylamine concentration, [5] | fold change of Tryptamine concentration, [2] | growth, [4]
0.6125 µM | 1.16 | 1.04 | 0.84
1.25 µM | 1.23 | 0.877 | 0.789
2.5 µM | 0.61 | 0.535 | 0.797
5 µM | 0.471 | 0.443 | 0.686
10 µM | 0.3 | 0.342 | 0.57
20 µM | 0.329 | 0.267 | 0.38

CO[C@H]1C[C@H](O[C@H]2[C@H](C)[C@@H](O[C@@H]3O[C@H](C)C[C@H](N(C)C)[C@H]3OC(C)=O)[C@@H](C)C[C@@]3(CO3)C(=O)[C@H](C)[C@@H](OC(C)=O)[C@@H](C)[C@@H](C)OC(=O)[C@@H]2C)O[C@@H](C)[C@@H]1OC(C)=O [Troleandomycin]
Conditions | fold change of Tryptamine concentration, [8] | growth, [9]
0.6125 µM | 1.07 | 1.05
1.25 µM | 1.17 | 1.01
2.5 µM | 1.21 | 0.886
5 µM | 1.21 | 0.87
10 µM | 0.983 | 0.89
20 µM | 0.344 | 0.236
